The source of these data is paper PMC4579641 (BMC Complementary and Alternative Medicine, 2015).

Converted amounts (≈) assume the structure as drawn. Where two headings read alike, the source gives them in different places.

Data set [1] has as its system Mycobacterium tuberculosis H37Rv. In words: Minimum Inhibitory Concentration by the Alamar Blue technique, M. tuberculosis. It is filed as cell-based. The settings on record: for MIC: Mycobacterium tuberculosis, 168 h, read-out: Antimycobacterial activity, M. tuberculosis MIC. In general terms: The colour change of resazurin is a common sign of viable cells or microbes.

In the next data set the test system is Mycobacterium bovis AN5. In words: microbe, parasite or virus in culture. Type of data set: cell-based. To be noted: for MIC: Mycobacterium tuberculosis variant bovis, AN5, 168 h, read-out: Antimycobacterial activity, M. bovis MIC; for Antimycobacterial activity, M. bovis MIC: AN5 strain, Alamar Blue, 7 days incubation, average and standard deviation of triplicate assays.

A short description of data set [2]: Cytotoxic activity on macrophages, alamar blue. It is filed as cell-based, mouse. To be noted: mouse, J774A monocyte macrophage cell line; J774 macrophages, 24 h; average and standard deviation of three assays. As for the experimental part:
(§1) The J774A mouse monocyte macrophage cell line was grown in RPMI medium (Sigma, R0883) supplemented with 10 % heat inactivated fetal bovine serum (FBS, Sigma-Aldrich), 1 % MEM-NEAA medium (Gibco, 11140–050) and a mixture of penicillin-streptomycin to 1 %. The cell culture was maintained at 37 °C with a partial atmosphere of 5 % CO2, the evaluations were carried out when 80–90 % confluence was reached.
(§2) In a 96 well plate 50,000 cells per well were deposited in a final volume of 100 μL, and incubated for 24 h at 37 °C in partial CO2 atmosphere to promote cell adhesion for an approximate 80 % confluence. Chemical compounds to be analyzed were diluted in DMSO; cytotoxic activity was evaluated by adding twofold serial dilutions of the compound to be analyzed, starting at a 1600 μg/mL concentration; the plates were further incubated (24 h). For cytotoxic evaluation, alamar blue (Sigma, R7017) solution was added (10 % v/v) and after 3 h, results were evaluated by determination of the change in color using a fluorimeter (590 nm). For negative control, cells were incubated with 500 μg/mL concentration of DMSO (Sigma, 472301), which was the highest concentration. Cytotoxic concentration (CC50) was determined using probit non-linear regression.

For data set [3], the system named is J774A mouse monocyte macrophage cell line. In words: Cytotoxic activity on macrophages, alamar blue. It is filed as cell-based. The settings on record: J774A CC50 versus mycobacterial MIC. As to the method: as §1, §2
The subject of the next data set is M. tuberculosis. The arrangement: method as in PMID 17924309. The settings on record: cited from earlier work.
Setting [4] is: H37Rv strain, Alamar Blue, 7 days incubation, average and standard deviation of triplicate assays.

As usually defined, the CC50 is the concentration at which the toxic effect on the cells reaches its halfway point. Low readings indicate greater toxicity to the cells, high ones lower toxicity to the cells.

For `CC1=CCC(=C(C)C)CC1` [Terpinolene], the MIC in data set [1] (setting [4]) came to 8.33 ± 3.61 µg/mL (≈ 61.1 µM); with Mycobacterium bovis AN5, 33.3 ± 14.4 µg/mL (≈ 245 µM).
Regarding `O=C(O)/C=C/c1ccccc1` [Cinnamic Acid], in data set [1] (setting [4]), the “Antimycobacterial activity, M. tuberculosis MIC” value is listed as 8.16 ± 3.32^FG μg/mL and the MIC was determined as 8.16 µg/mL (≈ 55.1 µM). In the data set with Mycobacterium bovis AN5, the “Antimycobacterial activity, M. bovis MIC” value is recorded as 7.29 ± 4.73^DE μg/mL and the MIC is 7.29 µg/mL (≈ 49.2 µM).
As for `C=C(C)[C@@H]1CC=C(C)C(=O)C1` [(+) Carvone], the figures for the MIC (in data set [1] (setting [4]); with Mycobacterium bovis AN5) were 20.8 ± 7.22 µg/mL (≈ 139 µM) and 41.3 ± 15 µg/mL (≈ 275 µM), respectively.
For the compound `C/C=C/c1ccc(OC)cc1` [t-Anethole], the values for the MIC (in data set [1] (setting [4]); with Mycobacterium bovis AN5) were 20.8 ± 7.22 µg/mL (≈ 141 µM) and 58.3 ± 14.4 µg/mL (≈ 394 µM), respectively.
On the same counts, the results for `C=C1CCC2CC1C2(C)C` (stereo not drawn) [β-pinene] are 10.4 ± 3.61 µg/mL (≈ 76.4 µM) and 41.7 ± 14.4 µg/mL (≈ 306 µM).
With `Cc1ccc(C(C)C)cc1` [p-Cymene], in data set [1] (setting [4]), the MIC is 91.7 ± 14.4 µg/mL (≈ 683 µM). Besides, the MIC in the data set on Mycobacterium bovis AN5 was 91.7 ± 14.4 µg/mL (≈ 683 µM). In data set [2], this compound had a CC50 at 24 h of 1170 ± 44.3 µg/mL (≈ 8690 µM) and a CC90 at 24 h of 2200 ± 86.6 µg/mL (≈ 16400 µM).
Regarding `Cc1ccc(C(C)C)c(O)c1` [Thymol], in data set [1] (setting [4]), the “Antimycobacterial activity, M. tuberculosis MIC” value is 0.78 ± 0.01^G μg/mL and the MIC is 0.78 µg/mL (≈ 5.19 µM). Also, in the data set with Mycobacterium bovis AN5, the “Antimycobacterial activity, M. bovis MIC” value is given as 2.02 ± 0.88^E μg/mL and the MIC worked out at 2.02 µg/mL (≈ 13.4 µM). In data set [2], this compound registered a half-maximal cytotoxic concentration (CC50) at 24 h of 483 ± 28.9 µg/mL (≈ 3220 µM) and a CC90 at 24 h of 1130 ± 115 µg/mL (≈ 7540 µM). Further, in data set [3], the “CC50 concentration higher than the concentration needed for mycobacterial elimination” value was “approximately 500 fold”.
In the case of `CC12CCC(CC1=O)C2(C)C` (centres unmarked) [Camphor], the MIC was 41.7 ± 14.4 µg/mL (≈ 274 µM) in data set [1] (setting [4]) and 50 µg/mL (≈ 328 µM) with Mycobacterium bovis AN5.
Turning to `C=C1CC/C=C(\C)CC[C@@H]2[C@@H]1CC2(C)C` [β-Caryophyllene], the MIC (in data set [1] (setting [4]); with Mycobacterium bovis AN5) was 100 µg/mL (≈ 489 µM) throughout.
`CC(C)c1ccc(C=O)cc1` [Cuminaldehyde]: the values for the MIC (in data set [1] (setting [4]); in the data set on Mycobacterium bovis AN5) were 10.4 ± 3.61 µg/mL (≈ 70.2 µM) and 20.8 ± 7.22 µg/mL (≈ 141 µM), respectively.
In the case of `CC1=CC=C(C(C)C)CC1` [α-Terpinene], the MIC was 10.4 ± 3.61 µg/mL (≈ 76.4 µM) in data set [1] (setting [4]) and 20.8 ± 7.22 µg/mL (≈ 153 µM) in the data set on Mycobacterium bovis AN5.
Take `NNC(=O)c1ccncc1` [Isoniazid, reference compound]: the MIC is 0.26 ± 0.01 µg/mL (≈ 1.9 µM) in data set [1] (H37RV) and 0.16 ± 0.3 µg/mL (≈ 1.17 µM) in the data set on Mycobacterium bovis AN5.
For the compound `O=C/C=C/c1ccccc1` [Cinnamaldehyde], in data set [1] (setting [4]), the “Antimycobacterial activity, M. tuberculosis MIC” value is 3.12 ± 0.00^EFG μg/mL and the MIC was found to be 3.12 µg/mL (≈ 23.6 µM). For the same compound, in the data set on Mycobacterium bovis AN5, the “Antimycobacterial activity, M. bovis MIC” value is 12.50 ± 0.00^DE μg/mL and the MIC amounted to 12.5 µg/mL (≈ 94.6 µM).
Turning to `CC1CCC(C(C)C)C(O)C1` (centres unmarked) [Menthol], the MIC in data set [1] (setting [4]) was determined as 41.7 ± 14.4 µg/mL (≈ 267 µM). Besides, the MIC in the data set on Mycobacterium bovis AN5 stood at 83.3 ± 14.4 µg/mL (≈ 533 µM). In data set [2], this compound displayed a 50% cytotoxic concentration (CC50) at 24 h of 1450 ± 180 µg/mL (≈ 9280 µM) and a CC90 at 24 h of 2600 ± 304 µg/mL (≈ 16600 µM).
With `C=CC(C)(O)CCC=C(C)C` (centres unmarked) [Linalool], the MIC in data set [1] (setting [4]) came to 33.3 ± 14.4 µg/mL (≈ 216 µM); in the data set with Mycobacterium bovis AN5 it was 41.7 ± 14.4 µg/mL (≈ 270 µM).
Take `C=C(C)[C@H]1CC=C(C)CC1` [(+) Limonene]: the MIC in data set [1] (setting [4]) is 25 µg/mL (≈ 184 µM); in the data set on Mycobacterium bovis AN5, 41.7 ± 14.4 µg/mL (≈ 306 µM).
For `CC(C)=CCCC(C)CCO` (stereo not drawn) [β-Citronellol], in data set [1] (setting [4]), the “Antimycobacterial activity, M. tuberculosis MIC” value is 6.25 ± 0.00^FG μg/mL and the MIC turned out to be 6.25 µg/mL (≈ 40 µM). Besides, the MIC in the data set on Mycobacterium bovis AN5 was 10.4 ± 3.61 µg/mL (≈ 66.6 µM).
Consider `CC1=CCC2C(C1)C2(C)C` (centres unmarked) [3-Carene], for which the results for the MIC (in data set [1] (setting [4]); in the data set with Mycobacterium bovis AN5) were 16.7 ± 7.22 µg/mL (≈ 122 µM) and 33.3 ± 14.4 µg/mL (≈ 245 µM), respectively.
With `CC(=O)OC/C=C(\C)CC/C=C(\C)CC/C=C(\C)CCC=C(C)C` [geranylgeranyl acetate], in the data set with M. tuberculosis, the “MIC against M. tuberculosis” value was 3.13 µg/mL.
As for `CC12CCC(CC1)C(C)(C)O2` [Eucalyptol], the MIC (in data set [1] (setting [4]); with Mycobacterium bovis AN5) was 41.7 ± 14.4 µg/mL (≈ 270 µM) throughout.
On to `C=CCc1ccc(OC)cc1` [Estragole], for which the MIC in data set [1] (setting [4]) was determined as 20.8 ± 7.22 µg/mL (≈ 141 µM); in the data set with Mycobacterium bovis AN5, 25 µg/mL (≈ 169 µM).
As to `Cc1ccc(C(C)C)cc1O` [Carvacrol], in data set [1] (setting [4]), the “Antimycobacterial activity, M. tuberculosis MIC” value is recorded as 2.02 ± 0.88^FG μg/mL and the MIC was found to be 2.02 µg/mL (≈ 13.4 µM). Moreover, in the data set with Mycobacterium bovis AN5, the “Antimycobacterial activity, M. bovis MIC” value was 5.20 ± 1.81^DE μg/mL and the MIC turned out to be 5.2 µg/mL (≈ 34.6 µM). Moreover, in data set [2], it took 900 ± 86.6 µg/mL (≈ 5990 µM) to reach half-maximal cytotoxicity (CC50 at 24 h) and the CC90 at 24 h stood at 1950 ± 107 µg/mL (≈ 13000 µM). The “CC50 concentration higher than the concentration needed for mycobacterial elimination” value in data set [3] is recorded as “approximately 500 fold”.
For the compound `C=CC(=C)CCC=C(C)C` [Myrcene], in data set [1] (setting [4]), the “Antimycobacterial activity, M. tuberculosis MIC” value was 25.00 ± 0.00^CDEF μg/mL and the MIC is 25 µg/mL (≈ 184 µM). The MIC in the data set with Mycobacterium bovis AN5 worked out at 33.3 ± 14.4 µg/mL (≈ 245 µM).
Take `C=CCc1ccc(O)c(OC)c1` [Eugenol]: the MIC in data set [1] (setting [4]) worked out at 25 µg/mL (≈ 152 µM); in the data set with Mycobacterium bovis AN5, 20.8 ± 7.22 µg/mL (≈ 127 µM).
On the same counts, the results for `COc1ccc(C=O)cc1` [p-Anisaldehyde] are 4.16 ± 1.81 µg/mL (≈ 30.6 µM) and 10.4 ± 3.61 µg/mL (≈ 76.5 µM).
With `CC(C)=CCC/C(C)=C/CO` [Geraniol], in data set [1] (setting [4]), the “Antimycobacterial activity, M. tuberculosis MIC” value is recorded as 12.50 ± 0.00^EFG μg/mL and the MIC stood at 12.5 µg/mL (≈ 81 µM). Also, the MIC in the data set with Mycobacterium bovis AN5 was found to be 12.5 µg/mL (≈ 81 µM).
In the case of `CC(C)=CCC/C(C)=C/CC/C(C)=C/CC/C(C)=C/CO` [Geranylgeraniol], the “MIC against M. tuberculosis” value in the data set on M. tuberculosis is 1.56 µg/mL (≈ 5.37 µM).
Take `C=C1CCC2(C(C)C)CC12` (centres unmarked) [Sabinene]: the MIC in data set [1] (setting [4]) was determined as 33.3 ± 14.4 µg/mL (≈ 245 µM); in the data set with Mycobacterium bovis AN5, 25 µg/mL (≈ 184 µM).
For `CO[C@H]1/C=C/O[C@@]2(C)Oc3c(C)c(O)c4c(O)c(c(/C=N/N5CCN(C)CC5)c(O)c4c3C2=O)NC(=O)/C(C)=C\C=C\[C@H](C)[C@H](O)[C@@H](C)[C@@H](O)[C@@H](C)[C@H](OC(C)=O)[C@@H]1C` [Rifampicin, reference compound], the results for the MIC (in data set [1] (setting [4]); in the data set on Mycobacterium bovis AN5) were 0.6 ± 0.14 µg/mL (≈ 0.729 µM) and 0.5 ± 0.01 µg/mL (≈ 0.608 µM), respectively.
